Experimental data taken from patent US20080021030A1, “Substituted Pyrazoles As Ppar Agonists” (priority 2003, published 2008).

How the values were obtained:
hPPAR gamma = target: T1, hPPAR gamma (Homo sapiens, UniProt P37231); test: Transient transfection (transactivation) assay in CV-1 cells, GAL4-PPAR LBD chimera, SPAP reporter; format: cell-based; details: read-out: EC50 μM HPPARγ
T1 construct: expressed in transfected cells; host or cells: CV-1 cells
T1 sequence (P37231 238-503 limits assumed): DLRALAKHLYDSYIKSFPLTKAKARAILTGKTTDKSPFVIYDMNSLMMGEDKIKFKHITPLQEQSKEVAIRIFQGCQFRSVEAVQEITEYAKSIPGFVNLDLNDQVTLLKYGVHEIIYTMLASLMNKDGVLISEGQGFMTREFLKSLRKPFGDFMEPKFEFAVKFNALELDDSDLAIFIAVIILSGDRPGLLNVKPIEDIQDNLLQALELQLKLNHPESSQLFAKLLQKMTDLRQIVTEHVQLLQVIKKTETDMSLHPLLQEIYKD
Procedure, shortened: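 CV-1 cells were transiently transfected with a GAL4 DBD–human PPARγ LBD chimera, a 5×GAL4-site SPAP reporter and β-galactosidase. After 16 h, the cells were exposed to compound in DME with 10% delipidated FCS for 24 h. Alkaline phosphatase and β-galactosidase activities were then measured in cell extracts.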

hPPAR delta = target: T2, hPPAR delta (Homo sapiens, UniProt Q03181); test: Transient transfection (transactivation) assay in CV-1 cells, GAL4-PPAR LBD chimera, SPAP reporter; format: cell-based; details: read-out: EC50 μM HPPARδ
T2 construct: expressed in transfected cells; host or cells: CV-1 cells
T2 sequence (Q03181 211-439 limits assumed): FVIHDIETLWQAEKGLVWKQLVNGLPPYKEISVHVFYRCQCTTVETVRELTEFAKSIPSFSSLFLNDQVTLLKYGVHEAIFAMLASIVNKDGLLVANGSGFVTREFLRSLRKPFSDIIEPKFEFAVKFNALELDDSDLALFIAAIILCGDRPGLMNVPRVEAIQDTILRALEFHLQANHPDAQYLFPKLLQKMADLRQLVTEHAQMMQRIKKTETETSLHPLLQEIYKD
Procedure, shortened: (§1)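 CV-1 cells transiently co-transfected with GAL4 DBD–human PPAR LBD chimera plus 5×GAL4-site SPAP reporter and β-galactosidase; after 16 h, compound added in DME with 10% delipidated FCS for 24 h. SPAP activity normalised to β-galactosidase; values in μM.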

hPPAR alpha = target: T3, hPPAR alpha (Homo sapiens, UniProt Q07869); test: as above; format: cell-based; details: read-out: EC50 μM HPPARα
T3 construct: expressed in transfected cells; host or cells: CV-1 cells
T3 sequence (Q07869 239-466 limits assumed): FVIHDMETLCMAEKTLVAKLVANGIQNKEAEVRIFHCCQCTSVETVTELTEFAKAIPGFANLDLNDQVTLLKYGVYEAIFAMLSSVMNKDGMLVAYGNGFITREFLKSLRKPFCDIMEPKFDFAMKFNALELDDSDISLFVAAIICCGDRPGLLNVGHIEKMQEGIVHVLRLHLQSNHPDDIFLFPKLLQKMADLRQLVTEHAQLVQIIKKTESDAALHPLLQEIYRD
Procedure, shortened: as §1

SMILES	EC50 (hPPAR gamma)	melting point	EC50 (hPPAR delta)	EC50 (hPPAR alpha)
COCCn1nc(C(=O)NCc2ccc(OC(C)(C)C(=O)O)c(C)c2)cc1-c1ccc(C(C)(C)C)cc1 [Example 52, 2-[(4-{[({5-[4-(1,1-dimethylethyl)phenyl]-1-[2-(methyloxy)ethyl]-1H-pyrazol-3-yl}carbonyl)amino]methyl}-2-methylphenyl)oxy]-2-methylpropanoic acid]	0.478 µM	65 °C	> 25 µM	0.042 µM
CCCCc1ccc(-c2cc(C(=O)NCc3cc(C)c(OC(C)(C)C(=O)O)c(Cl)c3)nn2C)cc1 [Example 38, 2-{4-[({[5-(4-butylphenyl)-1-methyl-1H-pyrazol-3-yl]carbonyl}amino)methyl]-2-chloro-6-methylphenoxy}-2-methylpropanoic acid]	0.072 µM	74 °C	> 25 µM	0.01 µM
